Laboratory results as given in publication PMC11342128, “Gold(I) and gold(III) carbene complexes from the marine betaine norzooanemonin: inhibition of thioredoxin reductase, antiproliferative and antimicrobial activity” (RSC Medicinal Chemistry, 2024).
pIC50: −log10 of the molar value.

Assays:
Format in all cases: cell-based
[1] = system: Vero E6 African green monkey kidney cells; assay: Antiproliferative activity in non-tumour reference cell line; conditions: for pIC50: Vero E6 non-tumour reference cell line, SD in parentheses, n = 3; for Tumour selectivity: tumour cell lines in comparison to Vero E6: comparison of IC50 in tumour cell lines and non-tumour Vero E6
Procedure: (§1) The antiproliferative potential of the gold–NHC complexes was determined in A549 lung carcinoma cells, MDA-MB-231 breast cancer cells, MCF-7 breast adenocarcinoma cells, and HT-29 colon carcinoma cells (Table 1). Vero E6 African green monkey kidney cells served as a reference cell line to check for possible tumour selectivity. Auranofin (AF) was used as an established reference drug.[15,17] […]
(§2) S2.2. Cytotoxicity and Anticancer Studies
(§3) Cell culture and cytotoxicity
(§4) Cell lines were sourced from DSMZ (German Collection of Microorganisms and Cell Cultures GmbH) and maintained through standard procedures in Dulbecco's Modified Eagle Medium (DMEM) supplemented with 10% fetal calf serum and 50 mg/L gentamycin. Antiproliferative effects were assessed using a well-established assay protocol. In brief, 100 μL volumes of A549 cells (13,243 cells per mL), HT-29 cells (14,657 cells per mL), MDA-MB-231 cells (6,613 cells per mL), or MCF-7 cells (6,917 cells per mL) were transferred into the wells of 96-well plates and incubated at 37°C/5% CO2 for 72 […]
(§5) Freshly prepared stock solutions of the compounds in DMSO were diluted with the respective cell culture medium to achieve graded concentrations (final concentration of DMSO: 0.1% v/v). After 72 hours (A549, HT-29) or 96 hours (MCF-7, MDA-MB-231) of exposure, the cell biomass was assessed through crystal violet staining, and the IC50 value was determined as the concentration causing 50% inhibition of cell proliferation compared to an untreated control. Results were calculated as the mean values of three independent experiments.

[2] = system: MDA-MB-231 breast cancer cells; assay: Antiproliferative activity, crystal violet assay; conditions: 96 h exposure, SD in parentheses, n = 3
Procedure: as §1, §2, §3, §4, §5

[3] = system: MCF-7 breast adenocarcinoma cells; assay: Antiproliferative activity, crystal violet assay; conditions: 96 h exposure, SD in parentheses, n = 3
Procedure: as §1, §2, §3, §4, §5

[4] = system: HT-29 colon carcinoma cells; assay: Antiproliferative activity, crystal violet assay; conditions: 72 h exposure, SD in parentheses, n = 3
Procedure: as §1, §2, §3, §4, §5

[5] = system: A549 lung carcinoma cells; assay: Antiproliferative activity, crystal violet assay; conditions: 72 h exposure, SD in parentheses, n = 3
Procedure: as §1, §2, §3, §4, §5

A549 cells = assay: Gold cellular uptake, HRCS-AAS; conditions: 2 μM, Fig. 5
Procedure: The amount of potential drug accumulated in the cell is often described as one of the critical factors for further biological effect. The significant difference in antiproliferative effect observed for dicarbene complexes 5a–c may be directly related to the amount of gold ions taken up by the treated cells. The cellular accumulation of these complexes was evaluated in the most sensitive cancer cell line A549. […] The gold content was further quantified using high-resolution continuum source atomic absorption spectroscopy (HRCS-AAS).
S2.4. Cellular uptake and metal quantification studies in A549 cells
Cellular uptake studies in A549 cells
For cellular accumulation studies, A549 lung carcinoma cells were seeded in 75 cm2 cell culture flasks, incubated with 10 ml DMEM/10% FCS cell culture medium at 37 °C in a 5% CO2 humidified atmosphere until they reached a confluence of 75-80%. The cells were treated with DMEM containing selected test compounds 3a and 3c dissolved in DMF (final DMF concentration: 0.1%; final test compound concentration: 2 μM). After 6 and 24 h of exposure, cells were isolated by removing the media followed by trypsinization. The trypsinized cells were washed with 9 ml PBS buffer (pH 7.4), scraped, and isolated by centrifugation (5 min, 3500 rpm). The obtained cell pellets were stored at -20 °C for further use. All experiments were carried out in triplicate.
Metal quantification in cell lysates by HRCS-AAS
Dry cell pellets were diluted with 400 μl of Milli-Q® water and lysed for 30 min in an ultrasonic bath (240 W, […]). For protein quantification. 20 μl of each sample was added to 200 μl of Bradford reagent (25 mg Serva Blue G (Sigma Aldrich) in 25 ml Ethanol 96%, 25 ml Milli-Q® water and 50 ml H3PO4 86%, stored at -20 °C and freshly diluted 1+4 with Milli-Q® water prior to use) and incubated on a 96-well plate while shaking at room temperature for 30 min and measured by a Perkin Elmer Victor X4 plate reader at a wavelength of 595 nm. The measurements were performed in duplicate, and the mean was used to calculate the protein content. For a standard calibration curve, bovine serum albumin (Sigma Aldrich) was used in graded concentrations.
The gold quantification was performed using a high-resolution continuum source atomic absorption spectrometer ContrAA® 700 (Analytik Jena AG). A pure sample of the respective complex 5c was used as standard, and calibration was done in a matrix-matched manner (meaning all samples and standards were adjusted to a protein concentration of 1 mg/ml by dilution with Milli-Q® water). The calibration and samples were measured in duplicate. The final cellular gold concentrations were calculated from data obtained in three independent experiments and are expressed as pmol of metal per mg of cell protein. Sample preparation: Triton-X 100 (1%, 20 μl) and ascorbic acid (1%, 20 μl) were added to each calibration standard or probe (200 μl). A volume of 20 μl was injected into a coated standard graphite tube (Analytik Jena AG) and thermally processed as previously described.[10] The gold amount was analyzed at a wavelength of 242.79 nm.

| SMILES | pIC50 [1] | Tumour selectivity: tumour cell lines in comparison to Vero E6 [1] | pIC50 [2] | pIC50 [3] | pIC50 [4] | pIC50 [5] | Gold uptake (cellular gold content) (A549 cells; 6 h, 37 °C) | Gold uptake (cellular gold content) (A549 cells; 24 h compared with 6 h) |
| --- | --- | --- | --- | --- | --- | --- | --- | --- |
| COC(=O)c1cn(C)[c]([Au-]([Cl])([Cl])[c]2n(C)cc(C(=O)OC)[n+]2C)[n+]1C.O=S(=O)([O-])C(F)(F)F [5b] | < 4.00 | clear preference for the tumour cell lines | 4.83 | 4.70 | 4.73 | 5.47 | higher degree of gold uptake | decreased significantly |
| Cn1cc(C(=O)O)[n+](C)[c]1[Au-]([Cl])([Cl])[c]1n(C)cc(C(=O)O)[n+]1C.[Cl-] [5a] | < 4.00 |  | < 4.00 | < 4.00 | < 4.00 | < 4.00 | low gold uptake |  |
| CCOC(=O)c1cn(C)[c]([Au-]([Cl])([Cl])[c]2n(C)cc(C(=O)OCC)[n+]2C)[n+]1C.F[B-](F)(F)F [5c] | 4.51 | clear preference for the tumour cell lines | 5.63 | 5.41 | 5.37 | 6.05 | higher degree of gold uptake | decreased significantly |
